# Results taken from patent US9980943B2, “Methods of treating muscular dystrophy” (BOARD OF REGENTS OF THE NEVADA SYSTEM OF HIGHER EDUCATION, …, priority 2013, dated 2018).
# Key:
# Assay type in all cases: cell-based, mouse
# [1] = tested on: α7 integrin (LacZ reporter in α7+/LacZ myotubes); assay: Myotube α7 integrin FDG assay (Burkin assay in myotubes, 96-well); settings: for Burkin Assay in Myotubes, value relative to DMSO: SU9516 analogs, 96-well, N=3-6
# [2] = tested on: β-galactosidase in CMV-LacZ C2C12 myoblasts; assay: CMV-LacZ secondary screen in C2C12 myoblasts (β-Gal stabilizing assay); settings: for CMV-LACZ in Myoblasts, value relative to DMSO: SU9516 analogs, C2C12 CMV-LacZ, N=2; for CMV-LACZ in Myoblasts (β-galactosidase activity relative to DMSO): CMV-LacZ C2C12 myoblasts
# Method in brief: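 β-Gal level was the read-out, measured in a clonal C2C12 line expressing LacZ from a CMV promoter. Dose-response curves used six concentrations, 0.5 μM up to 40 μM, with duplicate points.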
# [3] = tested on: β-galactosidase in CMV-LacZ C2C12 myotubes; assay: CMV-LacZ secondary screen in C2C12 myotubes (β-Gal stabilizing assay); settings: for CMV-LACZ in Myotubes, value relative to DMSO: SU9516 analogs, C2C12 CMV-LacZ, N=2; for CMV-LACZ in Myotubes, signal relative to DMSO: C2C12 CMV-LacZ myotubes, fold relative to DMSO
# Method in brief: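 Stable CMV-LacZ C2C12 clone; six-point curve 0.5–40 μM; duplicates.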
# [4] = tested on: α7 integrin (LacZ reporter in α7βgal+/− myoblasts); assay: Myoblast α7+/LacZ integrin FDG assay (Burkin assay in myoblasts, 96-well); settings: 96-well; for Burkin Assay in Myoblasts, value relative to DMSO: SU9516 analogs, N=3-6; for Burkin Assay in Myoblasts, signal relative to DMSO: α7+/LacZ myoblasts
structure (smiles),measurement,setting,value
C=CCOc1ccc(C(=O)/C=C2/C(=O)Nc3ccccc32)cc1 [MLS001214264-01],"Burkin Assay in Myotubes, value relative to DMSO",[1]; 0.5 uM,0.9576
same,"Burkin Assay in Myotubes, value relative to DMSO",[1]; 1 uM,0.8975
same,"Burkin Assay in Myotubes, value relative to DMSO",[1]; 5 uM,0.9073
same,"Burkin Assay in Myotubes, value relative to DMSO",[1]; 10 uM,1.058
same,"Burkin Assay in Myotubes, value relative to DMSO",[1]; 20 uM,0.7165
same,"Burkin Assay in Myotubes, value relative to DMSO",[1]; 40 uM,0.7173
same,"CMV-LACZ in Myoblasts, value relative to DMSO",[2]; 0.5 uM,1.0657
same,"CMV-LACZ in Myoblasts, value relative to DMSO",[2]; 1 uM,1.1383
same,"CMV-LACZ in Myoblasts, value relative to DMSO",[2]; 5 uM,1.3058
same,"CMV-LACZ in Myoblasts, value relative to DMSO",[2]; 10 uM,0.9233
same,"CMV-LACZ in Myoblasts, value relative to DMSO",[2]; 20 uM,0.3870
same,"CMV-LACZ in Myoblasts, value relative to DMSO",[2]; 40 uM,0.4856
same,"CMV-LACZ in Myotubes, value relative to DMSO",[3]; 0.5 uM,1.1210
same,"CMV-LACZ in Myotubes, value relative to DMSO",[3]; 1 uM,1.1905
same,"CMV-LACZ in Myotubes, value relative to DMSO",[3]; 5 uM,0.9411
same,"CMV-LACZ in Myotubes, value relative to DMSO",[3]; 10 uM,1.1534
same,"CMV-LACZ in Myotubes, value relative to DMSO",[3]; 20 uM,1.2424
same,"CMV-LACZ in Myotubes, value relative to DMSO",[3]; 40 uM,1.4482
same,"Burkin Assay in Myoblasts, value relative to DMSO",[4]; 0.5 uM,0.8908
same,"Burkin Assay in Myoblasts, value relative to DMSO",[4]; 1 uM,0.8464
same,"Burkin Assay in Myoblasts, value relative to DMSO",[4]; 5 uM,0.743
same,"Burkin Assay in Myoblasts, value relative to DMSO",[4]; 10 uM,0.7009
same,"Burkin Assay in Myoblasts, value relative to DMSO",[4]; 20 uM,0.7879
same,"Burkin Assay in Myoblasts, value relative to DMSO",[4]; 40 uM,0.2394
CC(C)Oc1ccc(C(=O)/C=C2/C(=O)Nc3ccccc32)cc1 [MLS001214276-01],"Burkin Assay in Myotubes, value relative to DMSO",[1]; 0.5 uM,1.162
same,"Burkin Assay in Myotubes, value relative to DMSO",[1]; 1 uM,1.197
same,"Burkin Assay in Myotubes, value relative to DMSO",[1]; 5 uM,0.9019
same,"Burkin Assay in Myotubes, value relative to DMSO",[1]; 10 uM,0.6945
same,"Burkin Assay in Myotubes, value relative to DMSO",[1]; 20 uM,0.2362
same,"Burkin Assay in Myotubes, value relative to DMSO",[1]; 40 uM,0.07736
same,"CMV-LACZ in Myoblasts, value relative to DMSO",[2]; 0.5 uM,0.9516
same,"CMV-LACZ in Myoblasts, value relative to DMSO",[2]; 1 uM,0.8731
same,"CMV-LACZ in Myoblasts, value relative to DMSO",[2]; 5 uM,1.3014
same,"CMV-LACZ in Myoblasts, value relative to DMSO",[2]; 10 uM,1.2231
same,"CMV-LACZ in Myoblasts, value relative to DMSO",[2]; 20 uM,1.2922
same,"CMV-LACZ in Myoblasts, value relative to DMSO",[2]; 40 uM,0.1781
same,"CMV-LACZ in Myotubes, value relative to DMSO",[3]; 0.5 uM,0.7733
same,"CMV-LACZ in Myotubes, value relative to DMSO",[3]; 1 uM,0.9141
same,"CMV-LACZ in Myotubes, value relative to DMSO",[3]; 5 uM,2.0151
same,"CMV-LACZ in Myotubes, value relative to DMSO",[3]; 10 uM,11.1000
same,"CMV-LACZ in Myotubes, value relative to DMSO",[3]; 20 uM,0.5259
same,"CMV-LACZ in Myotubes, value relative to DMSO",[3]; 40 uM,0.4976
same,"Burkin Assay in Myoblasts, value relative to DMSO",[4]; 0.5 uM,1.328
same,"Burkin Assay in Myoblasts, value relative to DMSO",[4]; 1 uM,1.222
same,"Burkin Assay in Myoblasts, value relative to DMSO",[4]; 5 uM,0.6234
same,"Burkin Assay in Myoblasts, value relative to DMSO",[4]; 10 uM,0.3235
same,"Burkin Assay in Myoblasts, value relative to DMSO",[4]; 20 uM,0.2022
same,"Burkin Assay in Myoblasts, value relative to DMSO",[4]; 40 uM,0.02694
NC(=O)COc1ccc(C(=O)/C=C2/C(=O)Nc3ccccc32)cc1 [MLS001214300-01],"Burkin Assay in Myotubes, value relative to DMSO",[1]; 0.5 uM,1.019
same,"Burkin Assay in Myotubes, value relative to DMSO",[1]; 1 uM,1.039
same,"Burkin Assay in Myotubes, value relative to DMSO",[1]; 5 uM,1.091
same,"Burkin Assay in Myotubes, value relative to DMSO",[1]; 10 uM,0.8733
same,"Burkin Assay in Myotubes, value relative to DMSO",[1]; 20 uM,0.7447
same,"Burkin Assay in Myotubes, value relative to DMSO",[1]; 40 uM,0.3178
same,"CMV-LACZ in Myoblasts, value relative to DMSO",[2]; 0.5 uM,1.0446
same,"CMV-LACZ in Myoblasts, value relative to DMSO",[2]; 1 uM,0.9403
same,"CMV-LACZ in Myoblasts, value relative to DMSO",[2]; 5 uM,0.7949
same,"CMV-LACZ in Myoblasts, value relative to DMSO",[2]; 10 uM,1.1047
same,"CMV-LACZ in Myoblasts, value relative to DMSO",[2]; 20 uM,0.4007
same,"CMV-LACZ in Myoblasts, value relative to DMSO",[2]; 40 uM,0.1793
same,"CMV-LACZ in Myotubes, value relative to DMSO",[3]; 0.5 uM,0.9819
same,"CMV-LACZ in Myotubes, value relative to DMSO",[3]; 1 uM,0.8924
same,"CMV-LACZ in Myotubes, value relative to DMSO",[3]; 5 uM,1.0550
same,"CMV-LACZ in Myotubes, value relative to DMSO",[3]; 10 uM,1.0956
same,"CMV-LACZ in Myotubes, value relative to DMSO",[3]; 20 uM,6.2635
same,"CMV-LACZ in Myotubes, value relative to DMSO",[3]; 40 uM,0.7118
same,"Burkin Assay in Myoblasts, value relative to DMSO",[4]; 0.5 uM,1.211
same,"Burkin Assay in Myoblasts, value relative to DMSO",[4]; 1 uM,0.9366
same,"Burkin Assay in Myoblasts, value relative to DMSO",[4]; 5 uM,0.8041
same,"Burkin Assay in Myoblasts, value relative to DMSO",[4]; 10 uM,0.353
same,"Burkin Assay in Myoblasts, value relative to DMSO",[4]; 20 uM,0.1847
same,"Burkin Assay in Myoblasts, value relative to DMSO",[4]; 40 uM,0.02593
Cn1c(-c2ccccc2)cc2ccccc21 [MLS001215074-01],"Burkin Assay in Myotubes, α7 integrin LacZ reporter signal relative to DMSO",[1]; 0.5 uM,0.7886
same,"Burkin Assay in Myotubes, α7 integrin LacZ reporter signal relative to DMSO",[1]; 1 uM,0.8307
same,"Burkin Assay in Myotubes, α7 integrin LacZ reporter signal relative to DMSO",[1]; 5 uM,1.05
same,"Burkin Assay in Myotubes, α7 integrin LacZ reporter signal relative to DMSO",[1]; 10 uM,1.132
same,"Burkin Assay in Myotubes, α7 integrin LacZ reporter signal relative to DMSO",[1]; 20 uM,0.7505
same,"Burkin Assay in Myotubes, α7 integrin LacZ reporter signal relative to DMSO",[1]; 40 uM,0.8488
same,CMV-LACZ in Myoblasts (β-galactosidase activity relative to DMSO),[2]; 0.5 uM,0.7877
same,CMV-LACZ in Myoblasts (β-galactosidase activity relative to DMSO),[2]; 1 uM,0.7800
same,CMV-LACZ in Myoblasts (β-galactosidase activity relative to DMSO),[2]; 5 uM,1.1754
same,CMV-LACZ in Myoblasts (β-galactosidase activity relative to DMSO),[2]; 10 uM,1.0294
same,CMV-LACZ in Myoblasts (β-galactosidase activity relative to DMSO),[2]; 20 uM,1.1277
same,CMV-LACZ in Myoblasts (β-galactosidase activity relative to DMSO),[2]; 40 uM,1.1432
same,"CMV-LACZ in Myotubes, signal relative to DMSO",[3]; 0.5 uM,0.8752
same,"CMV-LACZ in Myotubes, signal relative to DMSO",[3]; 1 uM,0.9238
same,"CMV-LACZ in Myotubes, signal relative to DMSO",[3]; 5 uM,0.8364
same,"CMV-LACZ in Myotubes, signal relative to DMSO",[3]; 10 uM,0.8583
same,"CMV-LACZ in Myotubes, signal relative to DMSO",[3]; 20 uM,0.8700
same,"CMV-LACZ in Myotubes, signal relative to DMSO",[3]; 40 uM,0.9930
same,"Burkin Assay in Myoblasts, signal relative to DMSO",[4]; 0.5 uM,1.023
same,"Burkin Assay in Myoblasts, signal relative to DMSO",[4]; 1 uM,0.9004
same,"Burkin Assay in Myoblasts, signal relative to DMSO",[4]; 5 uM,0.9431
same,"Burkin Assay in Myoblasts, signal relative to DMSO",[4]; 10 uM,0.9738
same,"Burkin Assay in Myoblasts, signal relative to DMSO",[4]; 20 uM,0.7339
same,"Burkin Assay in Myoblasts, signal relative to DMSO",[4]; 40 uM,0.5974
Cc1nc(Nc2ccccc2F)c2oc3ccccc3c2n1 [MLS001215123-01],"Burkin Assay in Myotubes, α7 integrin LacZ reporter signal relative to DMSO",[1]; 0.5 uM,0.9466
same,"Burkin Assay in Myotubes, α7 integrin LacZ reporter signal relative to DMSO",[1]; 1 uM,0.901
same,"Burkin Assay in Myotubes, α7 integrin LacZ reporter signal relative to DMSO",[1]; 5 uM,1.049
same,"Burkin Assay in Myotubes, α7 integrin LacZ reporter signal relative to DMSO",[1]; 10 uM,1.137
same,"Burkin Assay in Myotubes, α7 integrin LacZ reporter signal relative to DMSO",[1]; 20 uM,0.6938
same,"Burkin Assay in Myotubes, α7 integrin LacZ reporter signal relative to DMSO",[1]; 40 uM,0.816
same,CMV-LACZ in Myoblasts (β-galactosidase activity relative to DMSO),[2]; 0.5 uM,1.0530
same,CMV-LACZ in Myoblasts (β-galactosidase activity relative to DMSO),[2]; 1 uM,0.8837
same,CMV-LACZ in Myoblasts (β-galactosidase activity relative to DMSO),[2]; 5 uM,1.0888
same,CMV-LACZ in Myoblasts (β-galactosidase activity relative to DMSO),[2]; 10 uM,1.1943
same,CMV-LACZ in Myoblasts (β-galactosidase activity relative to DMSO),[2]; 20 uM,1.2639
same,CMV-LACZ in Myoblasts (β-galactosidase activity relative to DMSO),[2]; 40 uM,1.0098
same,"CMV-LACZ in Myotubes, signal relative to DMSO",[3]; 0.5 uM,1.1657
same,"CMV-LACZ in Myotubes, signal relative to DMSO",[3]; 1 uM,1.1457
same,"CMV-LACZ in Myotubes, signal relative to DMSO",[3]; 5 uM,1.1153
same,"CMV-LACZ in Myotubes, signal relative to DMSO",[3]; 10 uM,1.2929
same,"CMV-LACZ in Myotubes, signal relative to DMSO",[3]; 20 uM,1.0710
same,"CMV-LACZ in Myotubes, signal relative to DMSO",[3]; 40 uM,1.1030
same,"Burkin Assay in Myoblasts, signal relative to DMSO",[4]; 0.5 uM,1.075
same,"Burkin Assay in Myoblasts, signal relative to DMSO",[4]; 1 uM,0.9708
same,"Burkin Assay in Myoblasts, signal relative to DMSO",[4]; 5 uM,1.1241
same,"Burkin Assay in Myoblasts, signal relative to DMSO",[4]; 10 uM,1.155
same,"Burkin Assay in Myoblasts, signal relative to DMSO",[4]; 20 uM,0.665
same,"Burkin Assay in Myoblasts, signal relative to DMSO",[4]; 40 uM,0.5252
